From BindingDB's records for patent US20250313563 (The Broad Institute, 2025)
“And” between values parts separate entries of the source, which are not always exact repeats. Equal values may be shown once.

How the values were obtained:
[1] = target: Glycogen synthase kinase-3 alpha (Homo sapiens, UniProt P49840); assay: TR-FRET Assay
How it was run: (§1)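 Kinase activity, measured after a 30-minute compound preincubation, was stopped with EDTA and quantified by TR-FRET using a Tb-labelled pSer641 antibody paired with streptavidin-d2.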

[2] = target: Glycogen synthase kinase-3 beta (Homo sapiens, UniProt P49841); assay: TR-FRET Assay
How it was run: as §1

Glycogen synthase kinase-3 alpha, sequence (P49840 whole entry): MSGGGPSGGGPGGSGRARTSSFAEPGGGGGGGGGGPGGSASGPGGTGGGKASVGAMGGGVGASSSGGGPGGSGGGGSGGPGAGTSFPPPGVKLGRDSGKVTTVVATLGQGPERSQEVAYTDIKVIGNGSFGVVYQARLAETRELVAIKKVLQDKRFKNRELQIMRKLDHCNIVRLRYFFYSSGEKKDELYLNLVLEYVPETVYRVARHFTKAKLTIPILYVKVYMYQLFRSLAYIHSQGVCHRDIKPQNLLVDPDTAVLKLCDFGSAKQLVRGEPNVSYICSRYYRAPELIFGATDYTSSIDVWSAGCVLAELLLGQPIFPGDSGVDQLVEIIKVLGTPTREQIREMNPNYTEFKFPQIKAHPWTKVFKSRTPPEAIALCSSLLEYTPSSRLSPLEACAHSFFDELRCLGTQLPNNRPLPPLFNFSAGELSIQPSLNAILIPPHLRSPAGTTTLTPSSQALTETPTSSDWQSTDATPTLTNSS
Glycogen synthase kinase-3 beta, sequence (P49841 whole entry): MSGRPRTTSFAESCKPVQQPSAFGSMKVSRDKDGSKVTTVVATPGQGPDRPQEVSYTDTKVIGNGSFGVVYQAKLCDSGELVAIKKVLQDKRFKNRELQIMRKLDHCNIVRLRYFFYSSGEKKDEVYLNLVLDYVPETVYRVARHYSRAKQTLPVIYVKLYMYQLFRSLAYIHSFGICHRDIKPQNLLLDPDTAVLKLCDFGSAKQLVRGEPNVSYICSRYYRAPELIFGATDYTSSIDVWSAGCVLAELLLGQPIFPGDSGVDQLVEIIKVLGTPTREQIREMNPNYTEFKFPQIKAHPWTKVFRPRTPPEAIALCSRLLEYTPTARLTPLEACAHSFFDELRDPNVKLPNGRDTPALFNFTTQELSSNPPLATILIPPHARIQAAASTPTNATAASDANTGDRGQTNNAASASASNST

SMILES	IC50 [1]	IC50 [2]
CC[C@@]1(c2cccc(C3CCOCC3)c2)C2=CN=NC2NC2=C1C(=O)CC(C)(C)C2 (stereo partly drawn) [US20250313563, Compound 819639]	1000 to 5000 nM	> 5000 nM
CC[C@@]1(c2cccc(C(F)(F)F)c2)C2=C(N=NC2)NC2=C1C(=O)NC2(C)C [US20250313563, Compound 913452]	> 5000 nM	> 5000 nM
CC[C@H]1C[C@@]2(CCO1)C1=C(N=NC1)NC1=C2C(=O)CC(C)(C)C1 [US20250313563, Compound 924311]	100 to 1000 nM	1000 to 5000 nM
CC1(C)CC(=O)C2=C(C1)NC1=C(CN=N1)C21COC2(CN(C(=O)C3(F)CC3)C2)C1 (stereo not drawn) [US20250313563, Compound 947487]	< 100 nM	< 100 nM
CC[C@@]1(c2cccc(C(F)(F)F)c2)C2=CN=NC2NC2=C1C(=O)NC[C@H]2C (stereo partly drawn) [US20250313563, Compound 945385]	> 5000 nM	> 5000 nM
CC[C@@]1(c2cccc(OC)c2)C2=C(CC(C)(C)NC2=O)NC2N=NC(C)=C21 (stereo partly drawn) [US20250313563, Compound 949337]	100 to 1000 nM	1000 to 5000 nM
CC(C)(C)CC1N=NC2=C1[C@@](C)(c1cccc(S(=O)(=O)C(F)(F)F)c1)C1=C(CC(C)(C)CC1=O)N2 (stereo partly drawn) [US20250313563, Compound 126396]	> 5000 nM	> 5000 nM
CCC1(c2cccc(N(C)c3ncccn3)c2)C2=C(CC(C)(C)NC2=O)NC2N=NC(Cl)=C21 (stereo not drawn) [US20250313563, Compound 949417]	< 100 nM	< 100 nM
CC[C@@]1(c2cccc(S(C)(=O)=O)c2)C2=CN=NC2NC2=C1C(=O)NC(C)(C)C2 (stereo partly drawn) [US20250313563, Compound 945604]	< 100 nM	< 100 nM
CCC1(c2cccc(-c3ccncn3)c2)C2=CN=NC2NC2=C1C(=O)CC(C)(C)C2 (stereo not drawn) [US20250313563, Compound 806637]	< 100 nM	100 to 1000 nM
CCN(c1cccc(C2(CC)C3=CN=NC3NC3=C2C(=O)CC(C)(C)C3)c1)c1ncccn1 (stereo not drawn) [US20250313563, Compound 919840]	< 100 nM	< 100 nM
CCC1(c2cccc(N(c3cccnc3)C3CC3)c2)C2=CN=NC2NC2=C1C(=O)CC(C)(C)C2 (stereo not drawn) [US20250313563, Compound 913274]	< 100 nM	< 100 nM
CC[C@]1(c2cccc(-c3cnn(C)c3)c2)C2=CN=NC2NC2=C1C(=O)CC(C)(C)[C@H]2F (stereo partly drawn) [US20250313563, Compound 957505]	< 100 nM and 1000 to 5000 nM	1000 to 5000 nM and > 5000 nM
CC[C@]1(c2cccc(Br)c2)C2=C(CC(C)(C)CC2=O)NC2N=NC(C(F)(F)F)=C21 (stereo partly drawn) [US20250313563, Compound 810366]	< 100 nM	< 100 nM and 100 to 1000 nM
CC1(C)CC(=O)C2=C(C1)NC1=C(CN=N1)C2(C)c1cccc(Br)c1 (stereo not drawn) [US20250313563, Compound 789277]	< 100 nM	100 to 1000 nM
CCC1(c2cccc(C(F)(F)F)c2)C2=CN=NC2NC2=C1C(=O)NCC2C (stereo not drawn) [US20250313563, Compound 919318]	< 100 nM	100 to 1000 nM
Cc1cccc(S(=O)(=O)N2CC[C@@]3(C2)C2=C(N=NC2)NC2=C3C(=O)CC(C)(C)C2)c1 [US20250313563, Compound 943489]	< 100 nM	< 100 nM
CCC1(c2cccc(-c3ccnc(C)c3C)c2)C2=CN=NC2NC2=C1C(=O)NC(C)(C)C2 (stereo not drawn) [US20250313563, Compound 945994]	< 100 nM	100 to 1000 nM
CCC1(c2cccc(O)c2)C2=C(N=NC2)NC2=C1C(=O)CC(C)(C)C2 (stereo not drawn) [US20250313563, Compound 930334]	< 100 nM	100 to 1000 nM
CC[C@]1(c2cccc(-c3c(C)nn(C)c3C)c2)C2=CN=NC2NC2=C1C(=O)NC(C)(C)C2 (stereo partly drawn) [US20250313563, Compound 947413]	1000 to 5000 nM	> 5000 nM

SMILES	IC50 [1]	IC50 [2]
CC[C@@]1(c2cccc(Oc3ncccn3)c2)C2=C(CC(C)(C)NC2=O)NC2N=NC(F)=C21 (stereo partly drawn) [US20250313563, Compound 951944]	1000 to 5000 nM	> 5000 nM
CC(=O)N1CCC2(C1)C1=CN=NC1NC1=C2C(=O)CC(C)(C)C1 (stereo not drawn) [US20250313563, Compound 826763]	100 to 1000 nM	1000 to 5000 nM
CCC1(c2cccc(C(F)(F)F)c2)C2=CN=NC2NC2=C1C(=O)NC(C)C2 (stereo not drawn) [US20250313563, Compound 911956]	< 100 nM	100 to 1000 nM
CC[C@]1(c2cccc(C(F)(F)F)c2)C2=CN=NC2NC2=C1C(=O)C[C@H](C)C2 (stereo partly drawn) [US20250313563, Compound 810450]	< 100 nM and 100 to 1000 nM	< 100 nM and 1000 to 5000 nM
CC[C@@]1(c2cccc(-c3cnn(CCOC)c3)c2)C2=CN=NC2NC2=C1C(=O)NC(C)(C)C2 (stereo partly drawn) [US20250313563, Compound 949105]	< 100 nM	100 to 1000 nM
CC[C@@]1(c2cccc(-c3ccnc(C)c3F)c2)C2=CN=NC2NC2=C1C(=O)CC(C)(C)C2 (stereo partly drawn) [US20250313563, Compound 927347]	< 100 nM and 100 to 1000 nM	< 100 nM and 1000 to 5000 nM
CC[C@]1(c2cccc(-c3ccnn3C)c2)C2=CN=NC2NC2=C1C(=O)NC1(CCCC1)C2 (stereo partly drawn) [US20250313563, Compound 948019]	1000 to 5000 nM	> 5000 nM
CC[C@@]1(c2cccc(-c3ccncn3)c2)C2=CN=NC2NC2=C1C(=O)CC(C)(C)C2 (stereo partly drawn) [US20250313563, Compound 810489]	1000 to 5000 nM	> 5000 nM
CC[C@]1(c2cccc(C(F)(F)F)c2)C2=C(N=NC2)NC2=C1C(=O)CC2 [US20250313563, Compound 951565]	< 100 nM	100 to 1000 nM
CC[C@@]1(c2cccc(N(C)c3nccc(OC)n3)c2)C2=CN=NC2NC2=C1C(=O)CC(C)(C)C2 (stereo partly drawn) [US20250313563, Compound 947337]	100 to 1000 nM	1000 to 5000 nM
CC[C@]1(c2cccc(N(C)c3ncccn3)c2)C2=C(CC(C)(C)NC2=O)NC2N=NC(F)=C21 (stereo partly drawn) [US20250313563, Compound 949647]	100 to 1000 nM	> 5000 nM
CCC1(c2cccc(N3CC4CCC(C4)C3)c2)C2=CN=NC2NC2=C1C(=O)CC(C)(C)C2 (stereo not drawn) [US20250313563, Compound 885099]	100 to 1000 nM	1000 to 5000 nM
CCC1(c2cccc(-c3cncn3C)c2)C2=C(CC(C)(C)CC2=O)NC2N=NC(C)=C21 (stereo not drawn) [US20250313563, Compound 884001]	< 100 nM	< 100 nM
CC[C@]1(c2cccc(-c3cnn(C)c3C)c2)C2=C(CC(C)(C)NC2=O)NC2N=NC(C)=C21 (stereo partly drawn) [US20250313563, Compound 945727]	> 5000 nM	> 5000 nM
CCc1cc(-c2cccc([C@@]3(CC)C4=CN=NC4NC4=C3C(=O)NC(C)(C)C4)c2)ccn1 (stereo partly drawn) [US20250313563, Compound 948360]	1000 to 5000 nM	> 5000 nM
Cc1cc(-c2cccc3c2CCC[C@@]32C3=CN=NC3NC3=C2C(=O)CC(C)(C)C3)ccn1 (stereo partly drawn) [US20250313563, Compound 945549]	< 100 nM	< 100 nM
CC(=O)N1CC2(C1)C[C@]1(CO2)C2=C(N=NC2)NC2=C1C(=O)CC(C)(C)C2 [US20250313563, Compound 926872]	100 to 1000 nM	100 to 1000 nM
CC[C@@]1(c2cccc(N(C)c3cccc(OC)n3)c2)C2=CN=NC2NC2=C1C(=O)CC(C)(C)C2 (stereo partly drawn) [US20250313563, Compound 932666]	< 100 nM	100 to 1000 nM
CC[C@]1(c2cccc(-c3ccnc(C)c3)c2)C2=C(CC(C)(C)NC2=O)NC2N=NC(F)=C21 (stereo partly drawn) [US20250313563, Compound 949001]	100 to 1000 nM	100 to 1000 nM
